Like-named read-outs stand apart in the source and are kept apart here.
What was measured:
NA (H7N9) = format: biochemical; conditions: 200 µM
NA (H5N1) [1] = target: T1, NA (H5N1) (Influenza A virus, UniProt K0C216); assay: biochemical
Influenza B (B/Lee/40) = assay: microbe, parasite or virus in culture; format: cell-based
NA (H1N1,09) = NA (H1N1,09) (Influenza A virus, UniProt C3W5S3); assay: biochemical
[2] = test system: MDCK cells (Madin-Darby Canine Kidney cells)
NA (H5N1) [3] = target: T1, NA (H5N1); format: biochemical, Influenza A virus A/Hubei/1/2011(H5N1)
[4] = test system: influenza A H1N1 (A/WSN/33); conditions: cellular assay; cited from earlier work
in vitro [5] = conditions: dog
in vitro [6] = conditions: human
[7] = test system: H5N2 (A/Duck/Pennsylvania/84); assay: microbe, parasite or virus in culture; format: cell-based; conditions: unidentified influenza virus, H5N2, MDCK

With CC(=O)O[C@H]1C[C@H]([C@H](C)CC/C=C(\C)C(=O)O)[C@@]2(C)CC=C3C(=CC[C@H]4C(C)(C)C(=O)CC[C@]34C)[C@]12C [Compound 1, Ganoderic acid T-Q] the “Inhibition rate (%) NA(H7N9)” value (NA (H7N9)) was 27.4 ± 1.2%, the IC50 (NA (H5N1) [1]) was 1.2 ± 1 µM and the “Inhibition rate (%) NA (H5N1)” value (NA (H5N1) [1]; 200 µM) was 94.4 ± 0.4%. For the same compound, the IC50 (Influenza B (B/Lee/40); read-out: IC50) was 190 µM, the CC50 (MCF7 cells) was 28.2 ± 0.8 µM and the “Inhibition rate (%) NA(H1N1,09)” value (NA (H1N1,09); 200 μM of each compound, n = 3, means ± standard deviation) was 81.7 ± 1.7%. The IC50 (NA (H1N1,09); in vitro NA inhibition assay (n = 3)) was 5.6 ± 1.9 µM, the CC50 [2] was 41.1 µM and the “Kiu (ESI dissociation constant)” value (NA (H5N1) [3]) was 17.39. The “higher affinity to free NA than to the NA-substrate complex” value (NA (H5N1) [3]) was 2.5 fold and the mode of inhibition (NA (H5N1) [3]) was “mixed inhibition mode”.

In the case of C/C(=C\CC[C@@H](C)[C@H]1CC[C@@]2(C)C3=C(CC[C@]12C)[C@@]1(C)CC[C@H](O)C(C)(C)[C@@H]1CC3=O)CO [lucidadiol], the IC50 [4] is given as 220 µM.

In the case of CC(=CCC[C@@H](C)[C@H]1CC[C@@]2(C)C3=CC[C@H]4C(C)(C)[C@@H](O)CC[C@]4(C)C3=CC[C@]12C)CO [ganodermadiol], the IC50 [4] is listed as > 220 µM.

In the case of C/C(=C\CC[C@@H](C)[C@H]1C[C@H](O)[C@@]2(C)C3=CC[C@H]4C(C)(C)C(=O)CC[C@]4(C)C3=CC[C@]12C)C(=O)O [Compound 2, Ganoderic acid TR], the “Inhibition rate (%) NA(H7N9)” value (NA (H7N9)) is reported as 24.0 ± 1.8%, the inhibition at 200 µM (NA (H5N1) [1]; read-out: Inhibition rate (%) NA (H5N1)) is reported as 96.5 ± 0.3% and the IC50 (Influenza B (B/Lee/40); Influenza B virus, MDCK) is reported as 166 µM. For the same compound, the CC50 (in vitro [5]) was 299 µM, the CC50 (in vitro [6]) was 91.6 ± 3.4 µM and the IC50 [7] was 324 µM.

For CC(CC(=O)C[C@@](C)(O)C1=C[C@H](O)[C@]2(C)[C@]1(C)C(=O)C=C1[C@@]3(C)CCC(=O)C(C)(C)[C@@H]3C[C@H]3O[C@@]132)C(=O)O (some centres unmarked) [applanoxidic acid G], the IC50 [4] is given as 190 µM.
